Data set [1] concerns NCI-2052H cells. The data set can be described thus: Cytotoxicity assay (MTS) of NCI-2052H cells: bleomycin, mitomycin, doxorubicin, paclitaxel, talc, talc bound to drugs (Example 23). Type of data set: cell-based. The conditions noted are these: for Average readings: cells + drug, bleomycin / Average reading: cells + drug, mitomycin: absorbance 490 nm.
In data set [2] the test system is NCI-28H cells. In words: Cytotoxicity assay (MTS) of NCI-28H cells treated with bleomycin, talc, talc bound to bleomycin (Example 16). The data set is classed as cell-based. Particulars: 72 hrs. As for the experimental part: Read absorbance (MTS assay) and calculate cells survival rate.
1. […] 500,000 cells/670,000=0.75 ml of cells/media mix need to take from flask and transfer to 9.25 ml media. […] Gently mix.
1. Bring back tubes from cold room to laboratory. Centrifuge 3200 rpm for 3 min. Take out supernatant.
3. Wash cells 2×300 μL DPBS, remove final wash.
6. Incubate plate 1 hr at 37° C., 5% CO2.

Data set [3] can be described thus: Talc bound to HRP- and cold-Avidin, 48 hours in PBS containing 10% FBS (Example 14). Type of data set: physicochemical. As for the experimental part: Purpose: To check how strong the conjugate of hot/cold Avidin to Talc is. […] Absorbance will be checked twice—once before washing with PBS containing 10% FBS and after 48 hours, washing will be done.
6. Weigh 8 mg of Avidin (cold Avidin), then resuspend it in 2 mL of PBS containing 40 ng/mL of “hot” Avidin. So the solution will now be 40 ng/mL hot Avidin+4 mg/mL of Cold Avidin. Label this tube as #1.
14. […] Two identical microplates need to be set up, labeling them as: plate #1 and plate #2. Design of the plate:
3. Wash both plates 3× with 300 μL PBS.
5. […] Mix constantly, cover plate with Aluminum foil.
6. Add 100 μL of TMB to samples in plate #1.
9. Read absorbance at 450 nm using the plate reader.
3. Collect 100 μL supernatant from samples except native controls and load on same plate.
4. Wash plate except supernatant samples 3× with 300 μL PBS.
6. Add 100 μL of TMB to all samples in plate#2.

Data set [4] concerns NCI-28H cells. The data set can be described thus: Cytotoxicity assay (MTS) of NCI-28H cells: carboplatin, mitomycin, gemcitabine, talc, talc bound to drugs (Example 22). The conditions noted are these: NCI-28H cells; for Average absorbance readings: cells + drug, mitomycin: 490 nm. As for the experimental part:
Read absorbance (MTS assay) and calculate cells survive rate. Compare survival rate
1. Set up 3 cytotoxicity plates for tomorrow experiment: trypsinize NCI-28H cells (T-75 flask, passage 12): • Remove old medium, wash cells with 7 ml DPBS, remove DPBS, add 2 ml trypsin, incubate plates for 1-2′, when cells detached add 6 ml fresh medium, mix cells and medium. • Count cells under the microscope using the glass slide. […] If we need 200 wells, in each well will be 5,000 cells in 0.1 ml; so total we need 1,000,000 cells in 20 ml.
2. […] Final solution is 500 μL of 500 μM carboplatin.
4. […] Final solution is 500 μL of 200 μM Gemcitabine.
(§1) 1. Centrifuge tubes at 3200 rpm for 3 min. Take out supernatant.
3. Add 100 μL of each 8 preparations of diluted carboplatin (step 1 and 2) to the proper wells according to a plate layout.
4. Add 100 μL of each 8 preparations of diluted Gemcitabine (step 1, 2, 3) to the proper wells according to a plate layout.
6. Check the plate and start incubation at 37° C./5% CO2.
3. Wash all cells 1×300 μL DPBS, remove final wash.

Data set [5] has as its system NCI-2052H cells. The data set can be described thus: Repeated cytotoxicity experiment (MTS): NCI-2052H cells, mitomycin, talc, talc bound to mitomycin (Example 24). The data set is classed as cell-based. Particulars: for Average reading: drug + cells: absorbance 490 nm. How it is done:
Compare survival rate of cells.
1. […] Protocol how to do that see in previous cytotoxicity experiment.
as §1
1. Incubate plate for 72 hrs at 37° C., 5% CO2.
3. Wash all wells 1×300 μL DPBS, remove final wash.

Structures can show the parent of a compound that is named as a salt.

Turning to `Cc1c(N)nc([C@H](CC(N)=O)NC[C@H](N)C(N)=O)nc1C(=O)N[C@H](C(=O)N[C@H](C)[C@@H](O)[C@H](C)C(=O)N[C@H](C(=O)NCCc1nc(-c2nc(C(=O)NCCC[S+](C)C)cs2)cs1)[C@@H](C)O)[C@@H](O[C@@H]1OC(CO)[C@@H](O)C(O)C1O[C@H]1OC(CO)[C@@H](O)C(OC(N)=O)C1O)c1c[nH]cn1` (stereo partly drawn) [Bleomycin, Bleomycin sulfate Streptomyces verticillus], the “% survival from untreated cells” value in the data set on NCI-2052H cells [1] (Bleomycin 0.24 ug/ml) came to 101.64%; in the data set on NCI-2052H cells [1] (Bleomycin 0.97 ug/ml), 97.34%; in the data set on NCI-2052H cells [1] (Bleomycin 3.9 ug/ml), 88.64%; with NCI-2052H cells [1] (Bleomycin 15.6 ug/ml), 51.72%; in the data set with NCI-2052H cells [1] (Bleomycin 62.5 ug/ml), 38.34%; with NCI-2052H cells [1] (Bleomycin 250 ug/ml), 20.89%. The “% survival from untreated cells” value with NCI-2052H cells [1] (Bleomycin 1000 ug/ml) turned out to be 14.62%. Also, the “Average readings: cells + drug, bleomycin” value came to 1.3454 with NCI-2052H cells [1] (bleomycin 0.24 μg/ml); 1.2884 in the data set with NCI-2052H cells [1] (bleomycin 0.97 μg/ml); 1.1733 in the data set with NCI-2052H cells [1] (bleomycin 3.9 μg/ml); 0.6846 in the data set on NCI-2052H cells [1] (bleomycin 15.6 μg/ml); 0.5075 in the data set on NCI-2052H cells [1] (bleomycin 62.5 μg/ml); 0.2766 with NCI-2052H cells [1] (bleomycin 250 μg/ml). In the data set on NCI-2052H cells [1] (bleomycin 1000 μg/ml), the “Average readings: cells + drug, bleomycin” value is reported as 0.1935. The “% survival NCI-28H cells after treatment with BLEOMYCIN” value is reported as 92.41% in the data set on NCI-28H cells [2] (0.004 ug/ml); 88.25% with NCI-28H cells [2] (0.015 ug/ml); 93.38% in the data set with NCI-28H cells [2] (0.06 ug/ml); 91.86% with NCI-28H cells [2] (0.24 ug/ml); 86.19% with NCI-28H cells [2] (0.97 ug/ml); 71.05% in the data set on NCI-28H cells [2] (3.9 ug/ml). Moreover, the “% survival NCI-28H cells after treatment with BLEOMYCIN” value in the data set with NCI-28H cells [2] (15.6 ug/ml) stood at 74.60%; in the data set with NCI-28H cells [2] (62.5 ug/ml), 68.76%; in the data set on NCI-28H cells [2] (250 ug/ml) it was 47.13%; in the data set on NCI-28H cells [2] (1000 ug/ml), 24.92%.
Turning to “Avidin: Avidin from egg white (Sigma); 60,000 m.w. egg-white protein that binds biotin”, the “stability of binding of Avidin to talc” value in data set [3] is recorded as “unchanged at 48 hours”.
As to `CO[C@@]12[C@H](COC(N)=O)C3=C(C(=O)C(C)=C(N)C3=O)N1C[C@@H]1N[C@@H]12` [mitomycin], the “Average absorbance readings: cells + drug, mitomycin” value in the data set with NCI-28H cells [4] (mitomycin 0.0026 μM) was 2.032; in the data set on NCI-28H cells [4] (mitomycin 0.013 μM) it was 1.965; with NCI-28H cells [4] (mitomycin 0.064 μM), 1.8766; in the data set on NCI-28H cells [4] (mitomycin 8 μM), 0.3451; in the data set on NCI-28H cells [4] (mitomycin 40 μM), 0.52; in the data set with NCI-28H cells [4] (mitomycin 200 μM) it was 0.2464. The “% survival cells after exposure to drug for 72 hrs (cells + drug only), mitomycin” value with NCI-28H cells [4] (mitomycin 0.0026 μM) turned out to be 106.12%; in the data set with NCI-28H cells [4] (mitomycin 0.013 μM), 102.65%; in the data set on NCI-28H cells [4] (mitomycin 0.064 μM), 98.03%; in the data set on NCI-28H cells [4] (mitomycin 8 μM), 18.03%; in the data set with NCI-28H cells [4] (mitomycin 40 μM), 27.16%; in the data set with NCI-28H cells [4] (mitomycin 200 μM) it was 12.87%. The “Average reading: cells + drug, mitomycin” value was found to be 1.284 in the data set on NCI-2052H cells [1] (mitomycin 0.013 μM); 1.199 in the data set on NCI-2052H cells [1] (mitomycin 0.064 μM); 0.4142 in the data set with NCI-2052H cells [1] (mitomycin 8 μM); 0.2305 in the data set with NCI-2052H cells [1] (mitomycin 40 μM); 0.2098 in the data set with NCI-2052H cells [1] (mitomycin 200 μM); 1.424 in the data set on NCI-2052H cells [1] (mitomycin .0026 μM). Moreover, the “Average reading: drug + cells” value in the data set on NCI-2052H cells [5] (Mitomycin 0.013 uM) came to 0.7907; with NCI-2052H cells [5] (Mitomycin 0.064 uM), 0.8267; in the data set on NCI-2052H cells [5] (Mitomycin 8 uM) it was 0.4217; in the data set on NCI-2052H cells [5] (Mitomycin 40 uM) it was 0.2257; in the data set with NCI-2052H cells [5] (Mitomycin 200 uM) it was 0.2243; with NCI-2052H cells [5] (Mitomycin .0026 uM), 0.8637. In addition, the “% survival from untreated cells” value with NCI-2052H cells [5] (mitomycin 0.0026 (uM per Table 103)) worked out at 78.87%; in the data set on NCI-2052H cells [5] (mitomycin 0.013 (uM per Table 103)), 72.21%; with NCI-2052H cells [5] (mitomycin 0.064 (uM per Table 103)), 75.49%; in the data set on NCI-2052H cells [5] (mitomycin 0.32 (uM per Table 103)) it was 75.10%; in the data set with NCI-2052H cells [5] (mitomycin 1.6 (uM per Table 103)), 61.83%; with NCI-2052H cells [5] (mitomycin 8 (uM per Table 103)), 38.51%. Further, the “% survival from untreated cells” value in the data set on NCI-2052H cells [5] (mitomycin 40 (uM per Table 103)) is 20.61%; with NCI-2052H cells [5] (mitomycin 200 (uM per Table 103)), 20.49%.

The values are drawn from patent US20190216956A1, “COMPOSITIONS FOR RADIOTHERAPY AND USES THEREOF” (priority 2016, published 2019).
